From patent US20230339851A1, “CXCR6 SULFONAMIDE COMPOUNDS” (CHEMOCENTRYX, INC., priority 2022, published 2023)
pIC50: −log10 of the molar value.

target: T1, human CXCR6 (Homo sapiens, UniProt O00574); assay: Radioligand Binding Assay (125I-CXCL16 displacement); conditions: L1.2 cells stably transfected with human CXCR6 cDNA, 0.1 nM 125I-CXCL16, 4° C., three-hour incubation; read-out: Potency (IC50)
T1 construct: expressed in transfected cells
Method in brief: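 Displacement of 0.1 nM 125I-CXCL16 from human CXCR6 stably expressed in L1.2 cells was measured after a 3 h, 4 °C incubation in HBSS with 0.1% BSA. Filter-bound cpm were counted, and IC50 values came from a 3-parameter nonlinear fit.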

T1 sequence (O00574 whole entry): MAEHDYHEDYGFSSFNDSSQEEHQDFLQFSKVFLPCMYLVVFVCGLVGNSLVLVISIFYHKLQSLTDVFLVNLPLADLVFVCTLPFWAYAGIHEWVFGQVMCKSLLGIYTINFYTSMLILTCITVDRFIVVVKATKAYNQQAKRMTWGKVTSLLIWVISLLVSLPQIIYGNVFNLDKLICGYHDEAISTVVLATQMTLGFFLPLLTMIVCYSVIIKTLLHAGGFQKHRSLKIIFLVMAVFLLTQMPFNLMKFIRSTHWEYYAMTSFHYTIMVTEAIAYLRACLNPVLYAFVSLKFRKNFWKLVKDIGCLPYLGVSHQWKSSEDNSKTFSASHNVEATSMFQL

Compound | pIC50
CCOc1cc(NC(=O)[C@@H](O)C(C)C)ccc1S(=O)(=O)Nc1cccc(Cl)c1OC [Example 1.216] | 4.70 to 5.70
CCOc1cc(NC(=O)[C@@H](CO)C(C)C)ccc1S(=O)(=O)Nc1cccc(OC(F)F)c1 [Example 1.066] | ≥ 6.70
CCOc1cc(NC(=O)[C@@H](O)c2ccccc2)ccc1S(=O)(=O)Nc1ccc(F)c(OC(F)(F)F)c1 [Example 1.220] | ≥ 6.70
CC(C)[C@H](CO)C(=O)Nc1ccc(S(=O)(=O)Nc2cccc(OC(F)(F)F)c2)c(Cl)c1 [Example 1.085] | ≥ 6.70
CCOc1cc(NC(=O)[C@@H](CO)C(C)C)ccc1S(=O)(=O)Nc1cccc(C(F)(F)F)c1 [Example 1.062] | ≥ 6.70
CCOc1cc(NC(=O)[C@@H](CO)c2ccccc2)ccc1S(=O)(=O)Nc1ccc(C)c(OC(F)(F)F)c1 [Example 1.003] | ≥ 6.70
COc1cc(NC(=O)[C@@H](O)c2ccccc2)ccc1S(=O)(=O)Nc1cccc(OC(F)(F)F)c1 [Example 1.129] | ≥ 6.70
CCn1nccc1C(=O)Nc1ccc(S(=O)(=O)Nc2cccc(C(F)(F)F)c2)c(OC)c1 [Example 1.238] | 6.12 to 6.70
COc1cc(NC(=O)[C@@H]2C=CCN2C(=O)OC(C)(C)C)ccc1S(=O)(=O)Nc1cccc(C(F)(F)F)c1 [Example 1.033] | 4.70 to 5.70
CCOc1cc(NC(=O)[C@@H](CO)C(C)C)ccc1S(=O)(=O)Nc1cccc(C(C)(C)C)c1 [Example 1.017] | ≥ 6.70
CCOc1cc(NC(=O)[C@@H](O)C(C)C)ccc1S(=O)(=O)Nc1cccc(C(F)(F)F)c1F [Example 1.075] | 4.70 to 5.70
CCOc1cc(NC(=O)[C@@H](NC(=O)CC)C(C)C)ccc1S(=O)(=O)Nc1cccc(OC(F)(F)F)c1 [Example 1.241] | ≥ 6.70
CCOc1cc(NC(=O)C(CC)C(O)C2CCOCC2)ccc1S(=O)(=O)Nc1cccc(OC(F)(F)F)c1 (centres unmarked) [Example 1.039] | ≥ 6.70
CCOc1cc(NC(=O)[C@@H](CO)c2ccccc2)ccc1S(=O)(=O)Nc1cccc(Cl)c1C [Example 1.221] | 4.70 to 5.70
COc1cc(NC(=O)C2CCCCC2)ccc1S(=O)(=O)Nc1cccc(C(F)(F)F)c1 [Example 1.008] | 4.70 to 5.70
COc1cc(NC(=O)[C@@H]2C=CCN2C)ccc1S(=O)(=O)Nc1cccc(C(F)(F)F)c1 [Example 1.194] | 4.70 to 5.70
CCOc1cc(NC(=O)[C@H](N)C(C)C)ccc1S(=O)(=O)Nc1cccc(OC(F)(F)F)c1 [Example 1.158] | ≥ 6.70
CCc1cc(NC(=O)c2ccccc2)ccc1S(=O)(=O)Nc1cccc(C(F)(F)F)c1 [Example 1.193] | 6.12 to 6.70
CCOc1cc(NC(=O)[C@@H](CO)C(C)C)ccc1S(=O)(=O)Nc1cccc(OC(F)(F)F)c1 [Example 1.022] | ≥ 6.70

Now from value to compound:

pIC50 | Compound
6.12 to 6.70 | CCOc1cc(NC(=O)Cc2ccccc2OC)ccc1S(=O)(=O)Nc1cccc(OC(F)(F)F)c1 [Example 1.566]
≥ 6.70 | CCOc1cc(NC(=O)C(O)C(F)(F)F)ccc1S(=O)(=O)Nc1cccc(OC(F)(F)F)c1 (centres unmarked) [Example 1.406]
≥ 6.70 | CCOc1cc(NC(=O)[C@@H](CO)C(C)C)ccc1S(=O)(=O)Nc1ccc(Cl)c(C(F)(F)F)c1 [Example 1.523]
≥ 6.70 | COc1cc(NC(=O)c2ccnn2C)ccc1S(=O)(=O)Nc1ccc(Cl)c(OC(F)(F)F)c1 [Example 1.469]
5.70 to 6.12 | Cn1nccc1C(=O)Nc1ccc(S(=O)(=O)Nc2cccc(C(F)(F)F)c2)c(OC(F)(F)F)c1 [Example 1.461]
≥ 6.70 | CCOc1cc(NC(=O)[C@@H](O)C(C)C)ccc1S(=O)(=O)Nc1ccc(Cl)c(OC(F)(F)F)c1 [Example 1.533]
5.70 to 6.12 | CCOc1cc(NC(=O)[C@@H](CO)c2ccccc2)ccc1S(=O)(=O)Nc1ccc(C(F)(F)F)cc1 [Example 1.295]
5.70 to 6.12 | Cc1cc(NC(=O)c2cccn2C)ccc1S(=O)(=O)Nc1cccc(C(F)(F)F)c1 [Example 1.486]
≥ 6.70 | CCOc1cc(NC(=O)C(CO)CC2CC=CCC2)ccc1S(=O)(=O)Nc1cccc(OC(F)(F)F)c1 (centres unmarked) [Example 1.428]
4.70 to 5.70 | O=C(Nc1ccc(S(=O)(=O)Nc2cccc(C(F)(F)F)c2)c(F)c1)c1ccccc1 [Example 1.549]
4.70 to 5.70 | COc1cc(NC(=O)CC2CCCCCC2)ccc1S(=O)(=O)Nc1cccc(C(F)(F)F)c1 [Example 1.419]
4.70 to 5.70 | COCC(=O)Nc1ccc(S(=O)(=O)Nc2cccc(C(F)(F)F)c2)c(C)c1 [Example 1.544]
6.12 to 6.70 | CCOc1cc(NC(=O)C(O)c2ccc(O)cc2)ccc1S(=O)(=O)Nc1cccc(OC(F)(F)F)c1 (centres unmarked) [Example 1.527]
5.70 to 6.12 | COc1cc(NC(=O)C2CCCCC2C)ccc1S(=O)(=O)Nc1cccc(C(F)(F)F)c1 (centres unmarked) [Example 1.417]
≥ 6.70 | CCOc1cc(NC(=O)[C@@H](NC(C)=O)C(C)CC)ccc1S(=O)(=O)Nc1cccc(OC(F)(F)F)c1 (some centres unmarked) [Example 1.349]
6.12 to 6.70 | Cc1cc(NC(=O)c2cccc(Cl)c2)ccc1S(=O)(=O)Nc1cccc(C(F)(F)F)c1 [Example 1.299]
